Experimental data taken from patent publication US8198273B2, “Compounds and methods for kinase modulation, and indications therefor” (Plexxikon Inc., priority 2009, dated 2012).
pIC50: −log10 of the molar value.

Experiments:
A-Raf = target: T1, A-Raf (Homo sapiens, UniProt P10398); experiment: A-Raf biochemical kinase inhibition (AlphaScreen, biotin-MEK1 substrate); details: 100 μM ATP
T1 sequence (P10398 1-606): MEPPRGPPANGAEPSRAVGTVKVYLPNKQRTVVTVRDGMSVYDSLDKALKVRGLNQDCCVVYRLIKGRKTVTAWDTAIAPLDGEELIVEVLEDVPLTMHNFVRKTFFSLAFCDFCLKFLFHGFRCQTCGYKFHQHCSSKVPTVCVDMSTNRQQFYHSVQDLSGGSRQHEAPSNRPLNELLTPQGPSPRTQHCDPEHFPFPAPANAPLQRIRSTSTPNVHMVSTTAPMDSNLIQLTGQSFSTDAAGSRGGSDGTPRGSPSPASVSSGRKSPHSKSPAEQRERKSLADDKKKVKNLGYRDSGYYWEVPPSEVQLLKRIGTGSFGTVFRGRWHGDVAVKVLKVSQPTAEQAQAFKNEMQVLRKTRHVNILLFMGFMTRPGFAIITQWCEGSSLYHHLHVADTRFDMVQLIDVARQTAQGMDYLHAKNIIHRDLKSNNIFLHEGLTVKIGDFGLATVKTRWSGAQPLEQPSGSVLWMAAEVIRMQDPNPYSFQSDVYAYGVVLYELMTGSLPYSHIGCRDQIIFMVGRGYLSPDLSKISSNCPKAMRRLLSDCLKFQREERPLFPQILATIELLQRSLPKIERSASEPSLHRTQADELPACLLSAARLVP
Protocol: Compounds to be tested are diluted in dimethyl sulfoxide to a concentration of 0.1 mM. These are serially diluted 15 μL into 30 μL of dimethyl sulfoxide seven times in 96 well plates for a total of 8 dilution points, and for each dilution point 1 μL is added to a well of an assay plate. […] The reaction is started with addition of 10 μL of 200 μM ATP (i.e. final 100 μM ATP). […] The plates are incubated for 3 hours at room temperature and read on Envision reader (Perkin Elmer). […] The signal vs. compound concentration is used to determine the IC50.

[1] = system: SW620 colon adenocarcinoma cells (wild-type B-RAF); experiment: SW620 cell growth inhibition (ATPlite); assay type: cell-based; details: Homo sapiens, SW-620, 72 h; SW620, 3 days incubation
How it was run: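 ATPlite luminescence, taken as a cell-number measure, gave IC50 values after a 3-day 37° C, 5% CO2 incubation. Compounds were tested as 8-point threefold titrations, highest final concentration 10 μM, added to cells seeded the day before.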

Row | SMILES | pIC50 (A-Raf) | pIC50 [1]
1 | N#Cc1ccnc2[nH]cc(C(=O)c3c(F)ccc(NS(=O)(=O)c4cc(F)ccc4F)c3F)c12 [P-2036, N-[3-(4-Cyano-1H-pyrrolo[2,3-b]pyridine-3-carbonyl)-2,4-difluoro-phenyl]-2,5-difluoro-benzenesulfonamide] | > 8.00 | < 5.00
2 | N#Cc1ccnc2[nH]cc(C(=O)c3c(F)ccc(NS(=O)(=O)c4c(F)cccc4F)c3F)c12 [P-2037, N-[3-(4-Cyano-1H-pyrrolo[2,3-b]pyridine-3-carbonyl)-2,4-difluoro-phenyl]-2,6-difluoro-benzenesulfonamide] | > 8.00 | < 5.00
3 | N#Cc1ccnc2[nH]cc(C(=O)c3c(F)ccc(NS(=O)(=O)c4cccc(F)c4)c3F)c12 [P-2039, N-[3-(4-Cyano-1H-pyrrolo[2,3-b]pyridine-3-carbonyl)-2,4-difluoro-phenyl]-3-fluoro-benzenesulfonamide] | > 8.00 | < 5.00
4 | N#Cc1ccnc2[nH]cc(C(=O)c3c(F)ccc(NS(=O)(=O)c4cccnc4)c3F)c12 [P-2077, Pyridine-3-sulfonic acid [3-(4-cyano-1H-pyrrolo[2,3-b]pyridine-3-carbonyl)-2,4-difluoro-phenyl]-amide] | > 8.00 | < 5.00
5 | CCCS(=O)(=O)Nc1ccc(F)c(C(=O)c2c[nH]c3ncc(-c4ccc(NS(C)(=O)=O)cc4)cc23)c1F [P-2165, Propane-1-sulfonic acid {2,4-difluoro-3-[5-(4-methanesulfonylamino-phenyl)-1H-pyrrolo[2,3-b]pyridine-3-carbonyl]-phenyl}-amide] | > 8.00 | > 5.00
6 | CCCc1ccc(-c2cnc3[nH]cc(C(=O)c4c(F)ccc(NS(=O)(=O)CCC)c4F)c3c2)cn1 [P-2224, Propane-1-sulfonic acid {2,4-difluoro-3-[5-(6-propyl-pyridin-3-yl)-1H-pyrrolo[2,3-b]pyridine-3-carbonyl]-phenyl}-amide] | > 8.00 | < 5.00
7 | CCCS(=O)(=O)Nc1ccc(F)c(C(=O)c2c[nH]c3ncc(-c4ccc(N5CCCC5)nc4)cc23)c1F [P-2231, Propane-1-sulfonic acid {2,4-difluoro-3-[5-(6-pyrrolidin-1-yl-pyridin-3-yl)-1H-pyrrolo[2,3-b]pyridine-3-carbonyl]-phenyl}-amide] | > 8.00 | > 5.30
8 | CCCS(=O)(=O)Nc1ccc(F)c(C(=O)c2c[nH]c3ncc(-c4ccc(OCCN5CCCC5)nc4)cc23)c1F [P-2233, Propane-1-sulfonic acid (2,4-difluoro-3-{5-[6-(2-pyrrolidin-1-yl-ethoxy)-pyridin-3-yl]-1H-pyrrolo[2,3-b]pyridine-3-carbonyl}-phenyl)-amide] | > 8.00 | < 5.00
9 | CCCS(=O)(=O)Nc1ccc(F)c(C(=O)c2c[nH]c3ncc(-c4ccc(OCCCN5CCCC5)nc4)cc23)c1F [P-2235, Propane-1-sulfonic acid (2,4-difluoro-3-{5-[6-(3-pyrrolidin-1-yl-propoxy)-pyridin-3-yl]-1H-pyrrolo[2,3-b]pyridine-3-carbonyl}-phenyl)-amide] | > 8.00 | < 5.00
10 | CCCS(=O)(=O)Nc1ccc(F)c(C(=O)c2c[nH]c3ncc(-c4ccc(OCCCN5CCOCC5)nc4)cc23)c1F [P-2236, Propane-1-sulfonic acid (2,4-difluoro-3-{5-[6-(3-morpholin-4-yl-propoxy)-pyridin-3-yl]-1H-pyrrolo[2,3-b]pyridine-3-carbonyl}-phenyl)-amide] | > 8.00 | < 5.00
11 | CCCS(=O)(=O)Nc1cccc(C(=O)c2c[nH]c3ncc(-c4cnc(OC)nc4)cc23)c1F [P-2407, Propane-1-sulfonic acid {2-fluoro-3-[5-(2-methoxy-pyrimidin-5-yl)-1H-pyrrolo[2,3-b]pyridine-3-carbonyl]-phenyl}-amide] | > 8.00 | < 5.00
